# In article PMC4414571, “Peptides of Presenilin-1 Bind the Amyloid Precursor Protein Ectodomain and Offer a Novel and Specific Therapeutic Approach to Reduce ß-Amyloid in Alzheimer’s Disease” (PLoS ONE, 2015):
# Ends that are not written are not given here.
# Experiments:
# [1] = target: T1, soluble ectodomain of APP (APPs, APP 695) (Homo sapiens, UniProt P05067); test: Biolayer interferometry, biotinylated peptides on streptavidin biosensors vs purified soluble APP (APPs); format: binding; settings: 30°C, biotinylated peptide on SA biosensors
# T1 construct: host or cells: Sf9 insect cells (baculovirus), conditioned medium
# T1 sequence (P05067 18-612 isoform P05067-4 limits assumed): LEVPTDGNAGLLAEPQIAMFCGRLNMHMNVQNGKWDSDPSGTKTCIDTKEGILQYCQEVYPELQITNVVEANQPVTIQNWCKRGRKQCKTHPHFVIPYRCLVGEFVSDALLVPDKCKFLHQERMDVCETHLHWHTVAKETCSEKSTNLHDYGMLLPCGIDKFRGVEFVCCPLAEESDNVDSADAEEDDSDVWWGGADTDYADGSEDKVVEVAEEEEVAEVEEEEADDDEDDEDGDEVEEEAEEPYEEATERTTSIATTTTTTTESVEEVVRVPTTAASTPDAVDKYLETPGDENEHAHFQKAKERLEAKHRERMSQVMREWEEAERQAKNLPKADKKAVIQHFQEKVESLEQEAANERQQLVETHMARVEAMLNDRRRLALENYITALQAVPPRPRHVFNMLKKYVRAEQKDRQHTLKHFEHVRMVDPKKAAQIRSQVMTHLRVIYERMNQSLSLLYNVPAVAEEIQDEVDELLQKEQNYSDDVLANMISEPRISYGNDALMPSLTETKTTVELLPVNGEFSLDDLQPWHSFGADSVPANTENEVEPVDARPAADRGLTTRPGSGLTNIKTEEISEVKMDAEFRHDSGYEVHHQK
# Description: Sf9 cells (ATCC CRL 1711) were grown in TMN-FH complete medium (Pharmingen) in suspension and infected at a multiplicity of infection of 2 with a titred stock of recombinant virus expressing human APP695. Conditioned media and/or cells were harvested 6 days after infection. Cells and debris were removed by centrifugation (at 1000 x g for 15 min).
# Recombinant baculoviruses were produced according to published protocols. A fragment containing full-length APP 695 was subcloned into the baculovirus transfer vector pBlueBac3 (Invitrogen). The resulting recombinant vector was co-transfected with baculovirus DNA into sf9 cells. Recombinant APP expression was verified by Western blot hybridization using mouse MAb against human APP (Cat # MAB348, Millipore).
# APPs was purified from baculovirus conditioned medium to >95% purity, as assessed by densitometry analysis of Coomassie stained SDS PAGE gels, by Arvys Proteins, Stamford, CT, using the following strategy. The conditioned medium proteins were purified by heparin-affinity chromatography, followed by two gel filtration chromatography steps over HiPrep Sephacryl S300 columns and two steps of anion exchange chromatography on HiTrapQ columns.
# The binding affinities of peptides P1, scrambled P1, P4, P5, P7 and P8 for the soluble ectodomain of APP or control IgG were measured by biolayer interferometry on an Octet RED96 System (Pall FortéBio Corp., Menlo Park, CA). This system monitors interference of light reflected from two sources (an internal reflection surface and the liquid/solid interface of a fiber optic sensor) to measure the rate of binding of molecules to the biosensor surface.
# Peptides were synthesized and biotinylated at the NH2-terminus by Dr. Michael Freydkin at Biopeptides, Inc., San Diego, CA, and purified to >95% by HPLC. Biotinylated peptides were loaded onto Streptavidin (SA) biosensors (Pall FortéBio Corp.) at empirically determined concentrations. All affinity measurements were carried out in Kinetics Buffer (KB) (1X PBS, 0.002% Tween-20, and 0.01% BSA) at 30°C. Typically, the biosensors were pre-equilibrated in KB for 120s, loaded with a biotinylated peptide at optimal concentrations and times, quenched with 10 μg/ml biocytin in KB for 180s, brought to baseline in KB for 120s and transferred to wells containing purified APPs (0–200 nM). Multiple negative controls were run for each peptide including association buffer only (no APP) or with IgG replacing APP. Binding kinetics were calculated using the FortéBio Data Analysis v7.1 software. The association (k on) and dissociation (k off) rate constants were obtained by fitting the association and dissociation data to a 1:1 model. Binding affinity, KD, was calculated as k off/k on.
# [2] = system: NICD (γ-secretase activity); test: NICD levels in neocortex of treated mThy1-hAPP mice by Western blot (γ-secretase activity); format: in vivo, mouse; settings: peptide-infused mThy1-hAPP mice vs PBS, n = 5, two weeks after end of treatment
# Description: Extracts of neocortex of mThy1-hAPP mice treated with P4, P8 or PBS only were electrophoresed on SDS gels and Western blotted with primary rabbit antibodies against NICD (Cat# 07–1232, Millipore) at 4°C overnight, followed by horse-radish peroxidase (HRP)-conjugated goat anti-rabbit IgG (Bio-Rad). The immunoreactive bands were detected by chemiluminescence (Thermo Scientific).
# An optimal therapeutic approach to AD would avoid producing serious effects on other biochemically and physiologically important processes, as would occur if the cleavages of any of the other substrates of β- or γ-secretase were affected in the process of reducing the levels of Aβ. An especially well-studied example is the γ-secretase activity of PS-1 that is critically involved in the final enzymatic cleavage of Aβ from APP; it also functions in an essential developmental process that generates NICD from Notch. […] At the same time we analyzed the same tissue samples for their β-secretase (BACE-1) activity and APP expression. Extracts were prepared of the neocortex of Tg mice that had been treated with P4, P8 or PBS, and the levels of NICD were determined by Western blot analysis with a primary rabbit Ab against NICD. […]
# [3] = system: NICD / γ-secretase in Jurkat cells; test: NICD levels in extracts of Jurkat cells by ELISA (γ-secretase activity); settings: 0–10 μM, 24 h, 450 nm, percent control, n = 2–3
# Description: Jurkat cells (Sigma) were cultured in RPMI 1640 medium supplemented with 10% FCS, 2 mM L-glutamine, penicillin and streptomycin at 37°C in the presence of 5% CO2. […] After harvesting the cells, extracts were prepared by sonication in lysis buffer (Cell Signaling Technologies) supplemented with 1mM PMSF and complete protease inhibitor cocktail (Roche). The solubilized extracts were then used in ELISA assays to determine NICD levels, as a measure of γ-secretase activity, using the PathScan Cleaved Notch 1 (Val 1744) sandwich ELISA kit (Cell Signaling Technologies) according to the manufactuer’s protocols.
# [4] = ref evidence that will be presented elsewhere, cited from earlier work
# Text: Two types of technologies have largely been pursued in the field thus far in efforts to reduce the levels of Aβ: β- or γ- secretase inhibitors or modulators, and the use of Aβ-specific monoclonal antibodies. Neither approach has been entirely successful, and γ-secretase inhibitors have been particularly problematic because of off-target effects due to the inhibition of their other substrates, Notch in particular.
# [5] = system: IMR-32 human neuroblastoma cell-line (endogenous Aβ40 or 42 production); test: Endogenous Aβ40 and 42 production in IMR-32 culture medium by ELISA; format: cell-based
# Description: A human neuroblastoma cell-line, IMR-32 (ATCC CCL-127) was cultured in MEM Earles medium containing 10% fetal bovine serum, 2 mM L-glutamine in the presence of penicillin and streptomycin. Equal numbers of cells (0.3 x 10^6 per well) were plated on 6-well plates overnight. Peptides (0–5 μM) were added to fresh culture medium (500 μl per well) and left in the incubator for 24 hours, after which the culture medium from each well was removed and stored at -80°C in the presence of 4-(2-Aminoethyl) benzenesulfonyl fluoride hydrochloride (AEBSF) and protease inhibitors. Prior to use, the culture medium was centrifuged in an eppendorf microfuge for 5 min at 4°C, the supernatant diluted with an equal volume of sample diluent buffer (Wako) and analyzed for the presence of Aβ40 or 42 using a commercial ELISA kit (Wako).
# BACE-1 in IMR-32 cells = test: BACE-1 activity in extracts of cultured IMR-32 cells; format: cell-based, human; settings: 0–5 μM, 24 h, SensiZyme kit, 405 nm, percent control, n = 2–3
# Description: IMR-32 cells in culture were treated with peptides P4, P8 and scrambled peptide P1 (0–5 μM) or the BACE-1 inhibitor […] (Selleck Chemicals) (0–500 nM) for 24 h. Cells were harvested and extracts prepared by sonication and solubilization in cell lysis buffer containing 1% Triton X-100 and EDTA (Cell Signaling Technologies) and supplemented with complete protease inhibitor cocktail (Roche) according to the manufacturer’s protocols. BACE-1 activity was measured as already described above using the SensiZyme BACE-1 activity assay kit.
sequence,measurement,setting,value
DEEEDEEL [Peptide P8],koff,"[1]; 1:1 model, Kinetics Buffer",0.00306 s⁻¹
same,kon,"[1]; 1:1 model, Kinetics Buffer",886000 M⁻¹ s⁻¹
same,Kd,"[1]; k off/k on, 1:1 model, Kinetics Buffer (1X PBS, 0.002% Tween-20, 0.01% BSA)",3.45 nM
same,NICD levels in neocortex (in words),[2],not accompanied by any significant changes in the levels of NICD
same,"NICD levels in Jurkat cells, peptides (in words)",[3],no appreciable change in the levels of NICD
same,Stability (in words),[4]; matrix not stated,stable
same,Brain delivery (in words),[4]; rats,can be successfully delivered to the brain in rats
"PTERLLKGTVRLKQQLDQDESDARNLRNNLNPQRGFMALDESERHENRSAMQVESHQNPHPPYETEQENDEGSGSEYSNV [SP1, scrambled P1, control peptide]",Effect on Aβ40 and 42 production in vitro (in words),"[5]; 0–5 μM peptide, 24 h, IMR-32 culture medium, ELISA",no significant changes in Aβ levels
same,Production of total Aβ and of Aβ 40 and 42 (summary in words),"[5]; Discussion summary, stated as in vitro and in vivo (mThy1-hAPP Tg mice)",did not reduce Aβ
same,Binding to purified APPs (in words),[1]; Kinetics Buffer,no significant binding to APP
same,"BACE-1 activity in IMR-32 cells, peptides (in words)",BACE-1 in IMR-32 cells,remained essentially unchanged
